In US20070011757A1, “Transgenic rodents as animal models for modulation of B1 bradykinin receptor protein” (priority 2001, published 2007):

What was measured:
[1] = target: T1, endogenous B1 receptor (Rattus norvegicus, UniProt P97583); test: Autoradiography of [3H]DALK binding in brain and spinal cord sections of non-transgenic rats; settings: non-transgenic control rats, 0.3 nM radioligand
T1 construct: DALK in non-transgenic control rats; from tissue; host or cells: brain and spinal cord sections (and whole-brain homogenate) of non-transgenic Sprague-Dawley rats
T1 sequence (P97583 1-337): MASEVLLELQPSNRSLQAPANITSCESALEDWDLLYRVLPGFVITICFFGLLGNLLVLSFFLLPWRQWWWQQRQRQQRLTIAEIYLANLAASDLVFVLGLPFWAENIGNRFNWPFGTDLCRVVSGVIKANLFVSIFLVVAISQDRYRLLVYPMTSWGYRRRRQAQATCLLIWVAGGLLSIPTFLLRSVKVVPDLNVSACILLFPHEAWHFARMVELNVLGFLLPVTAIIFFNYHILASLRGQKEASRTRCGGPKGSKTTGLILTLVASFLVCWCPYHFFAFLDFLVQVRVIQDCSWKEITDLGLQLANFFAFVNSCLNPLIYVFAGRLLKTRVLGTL

[2] = target: T2, human B1 bradykinin receptor (Homo sapiens, UniProt P46663); test: 3H-DALK binding to membranes from transgenic rat brain tissue
T2 construct: from tissue; host or cells: whole-brain membranes of transgenic Sprague-Dawley rats carrying Construct #1
T2 sequence (P46663 1-353): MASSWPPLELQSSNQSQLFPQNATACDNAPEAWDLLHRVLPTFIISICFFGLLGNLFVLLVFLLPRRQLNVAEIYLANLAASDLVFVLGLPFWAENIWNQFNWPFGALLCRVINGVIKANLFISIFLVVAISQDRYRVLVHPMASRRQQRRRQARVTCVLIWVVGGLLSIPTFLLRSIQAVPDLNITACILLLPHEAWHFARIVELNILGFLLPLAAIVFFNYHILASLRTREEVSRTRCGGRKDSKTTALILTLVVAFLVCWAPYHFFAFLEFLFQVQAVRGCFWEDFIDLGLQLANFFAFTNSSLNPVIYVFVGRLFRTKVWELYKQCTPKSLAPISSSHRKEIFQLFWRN
Description: Also important in these assays is the low expression level of endogenous B1 receptor in neuronal tissue. Briefly, transgenic animals from line 0004, 0014, and 0015 (all females) were decapitated following anesthesia and the whole brain was removed, bisected sagitally and the entire 1⁄2 brain weighed. Weights were as follows: line 0004 (813 mg), line 0014 (851 mg), and 0015 (843 mg). The brain tissue was homogenized with a Polytron in ice cold 50 mM Tris-HCl, 1 mM EDTA, 1 mM o-phenanthroline, pH 7.4. The homogenate was centrifuged at 50,000×g for 20 minutes. The pellet was resuspended and homogenized a second time in Tris buffer, and the centrifugation step was repeated. The final pellet was resuspended in assay buffer (20 mM HEPES, 120 mM NaCl, 5 mM KCl, 1 mM o-phenanthroline, 0.2 uM of […] form and active metabolite of […] added to inhibit angiotensin converting enzyme), 100 μg/ml bacitracin, 3 μM amastatin, 1 μM phosphoramidon, 0.1% BSA, pH 7.4. The assay was carried out in a 0.5 ml volume at room temperature for sixty minutes with 10 mg wet weight tissue/tube. Total protein was determined using a Bio Rad DC assay kit. […] FIG. 9A, 9B and 9C show measurements of the amount of total, nonspecific and specific binding of ^3H-DALK to transgenic rat brain tissue which expresses human B1 bradykinin receptor. […] In contrast, no B1 receptor is detected in the brains of non-transgenic rats. The Ki values determined for three standard lead compounds in Line 0004 are very similar to those obtained at the cloned hB1 receptor expressed in CHO cells. Therefore, expression of the human B1 bradykinin receptor in Line 0004 has the properties expected for the human B1 receptor.

Question: With [des-Arg^10, Leu^9]-Kallidin [^3H-DALK] as the substance, how does the specific binding [1] read?
Answer: did not show any specific binding signal

Question: What about the specific binding ([1]; listed as [H-3] DALK) of the same substance?
Answer: no detectable specific binding

Question: And the “affinity for the human B1 receptor relative to the rat B1 receptor” value [2]?
Answer: greater affinity

Question: What about the selectivity ([2]; printed as 'approximately 40 fold selective for this ligand') of the same substance?
Answer: approximately 40 fold

Question: What about the “expression (specific binding of 3H-DALK, saturation binding)” value (shortened to “expression”) ([2]; transgenic rat Line 0004 brain membranes, FIG. 9A) of the same substance?
Answer: 40 fmol/mg protein

Question: What about the “expression” value ([2]; transgenic rat Line 0014 brain membranes, FIG. 9B) of the same substance?
Answer: 4 fmol/mg protein

Question: And the “expression” value ([2]; transgenic rat Line 0015 brain membranes, FIG. 9C)?
Answer: 7 fmol/mg protein

Question: What about the “binding site in transgenic rats expressing the human B1 receptor” value ([2]; whole brain homogenate assay or receptor autoradiography of brain slices) of the same substance?
Answer: readily detectable
